Laboratory results published in patent US5220018A, “Cholecystokinin antagonists” (Merck & Co., Inc., priority 1992, dated 1993).
Where two headings read alike, the source gives them in different places.

Experiments:
[1] = target: T1, CCK Receptor (Brain) (Cavia porcellus, UniProt H0VZC5); assay: CCK Receptor Binding (Brain), inhibition of 125I-CCK-8 binding; design: species or system Male Hartley guinea pigs
T1 construct: the cortex was removed and homogenized in 25 mL ice-cold 0.32M sucrose; from tissue; host or cells: guinea pig cerebral cortex, P2 membrane pellet
T1 sequence (H0VZC5 1-426): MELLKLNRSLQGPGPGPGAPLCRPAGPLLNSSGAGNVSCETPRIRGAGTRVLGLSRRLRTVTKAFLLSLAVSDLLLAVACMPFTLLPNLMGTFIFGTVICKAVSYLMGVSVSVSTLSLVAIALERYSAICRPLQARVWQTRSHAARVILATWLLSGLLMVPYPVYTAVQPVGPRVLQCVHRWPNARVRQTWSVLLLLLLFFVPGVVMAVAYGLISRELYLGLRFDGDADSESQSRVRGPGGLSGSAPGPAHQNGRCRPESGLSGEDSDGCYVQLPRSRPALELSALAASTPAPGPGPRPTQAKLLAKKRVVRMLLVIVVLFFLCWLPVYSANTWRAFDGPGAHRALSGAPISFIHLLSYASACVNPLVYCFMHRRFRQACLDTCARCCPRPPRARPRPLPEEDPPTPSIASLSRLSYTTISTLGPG
Protocol: 2. CCK Receptor Binding (Brain)
CCK-8 sulphated was radiolabelled and the binding was performed according to the description for the pancreas method with minor modifications.
Male Hartley guinea pigs (300-500 g) were sacrificed by decapitation and the cortex was removed and homogenized in 25 mL ice-cold 0.32M sucrose. The homogenates were centrifuged at 1000 g for 10 minutes and the resulting supernatant was recentrifuged at 20,000 g for 20 minutes. […] All assays were run in duplicate. The reaction mixtures were incubated at 25° C. for 2 hours and then the reaction was terminated on Whatman GF/C filters by rapid filtration (Brandell 24 well cell Harvester) with 3×5 ml washes of cold 100 mM NaCl. The radioactivity on the filters was then counted with a LKB gamma counter.
(§1) Drug displacement studies were performed with at least 10 concentrations of compounds of formula 1 and the IC50 values were determined by regression analysis.

[2] = target: T2, CCK Receptor (Pancreas) (Rattus norvegicus, UniProt P30551); assay: biochemical; format: binding, Male Sprague-Dawley rats
T2 construct: The whole pancreas was dissected free of fat tissue and was homogenized; from tissue; host or cells: rat whole pancreas, homogenate membranes
T2 sequence (P30551 1-444): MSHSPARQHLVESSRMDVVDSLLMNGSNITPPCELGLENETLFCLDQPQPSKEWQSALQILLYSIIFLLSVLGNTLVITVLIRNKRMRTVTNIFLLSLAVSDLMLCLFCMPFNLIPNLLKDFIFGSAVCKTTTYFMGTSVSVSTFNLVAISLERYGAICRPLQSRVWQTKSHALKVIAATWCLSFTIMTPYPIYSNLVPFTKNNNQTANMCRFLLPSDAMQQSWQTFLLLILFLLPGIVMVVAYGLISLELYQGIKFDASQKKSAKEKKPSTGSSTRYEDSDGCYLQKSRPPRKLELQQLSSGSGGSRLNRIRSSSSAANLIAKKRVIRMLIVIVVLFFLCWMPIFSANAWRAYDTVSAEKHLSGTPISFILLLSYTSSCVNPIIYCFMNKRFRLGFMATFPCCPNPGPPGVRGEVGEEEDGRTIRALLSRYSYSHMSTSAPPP
Protocol: 1. CCK Receptor Binding (Pancreas)
CCK-8 sulphated was radiolabelled with ^125 I-Bolton Hunter reagent (2000 Ci/mmole). Receptor binding was performed according to Chang and Lotti (Proc. Natl. Acad. Sci. 83, 4923-4926, 1986) with minor modifications.
Male Sprague-Dawley rats (150-200 g) were sacrificed by decapitation. The whole pancreas was dissected free of fat tissue and was homogenized in 25 volumes of ice-cold 10 mM Hepes buffer with 0.1% soya bean trypsin inhibitor (pH 7.4 at 25° C.) with a Kinematica Polytron. The homogenates were centrifuged at 47,800 g for 10 min. Pellets were resuspended in 10 volumes of binding assay buffer (20 mM Hepes, 1 mM EGTA, 5 mM MgCl2, 150 mM NaCl, bacitracin 0.25 mg/ml, soya bean trypsin inhibitor 0.1 mg/ml, and bovine serum albumin 2 mg/ml, pH 6.5 at 25° C.) using a teflon homogenizer, 15 strokes at 500 rpm. The homogenate was further diluted in binding assay buffer to give a final concentration of 0.5 mg original wet weight/1 ml buffer. […] All assays were run in duplicate. The reaction mixtures were incubated at 25° C. for 2 hours and the reaction terminated by rapid filtration (Brandell 24 well cell harvester) over Whatman GF/C filters, washing 3×4 mls with ice-cold 100 mM NaCl. The radioactivity on the filters was counted with a LKB gamma counter.
as §1

[3] = guinea pig cortex membranes, 125I-CCK-8 50 pM, 25° C., 2 hours, read-out: IC50, 125I-CCK Brain
[4] = rat pancreas membranes, 125I-CCK-8 50 pM, 25° C., 2 hours, read-out: IC50, 125I-CCK Pancreas

## COc1ccc(NC(=O)N[C@@H]2N=C(c3ccccc3)c3ccccc3N(C)C2=O)cn1 [Example 6, N-{1,3-Dihydro-1-methyl-2-oxo-5-phenyl-1H-1,4-benzodiazepin-3-yl}-N'-{[5-(2-methoxy)pyridyl]urea}]
[1]; [3]
  IC50: 48 nM
[2]; [4]
  IC50: 2000 nM

## CN1C(=O)[C@H](NC(=O)Nc2cccc(Cc3nnn[nH]3)c2)N=C(c2ccccc2)c2ccccc21 [Example 17, N-{1,3-Dihydro-1-methyl-2-oxo-5-phenyl-1H-1,4-benzodiazepin-3-yl}-N'-{[3-((1H-tetrazol-5-yl)methyl)phenyl]urea}]
[1]; [3]
  IC50: 4.8 nM
[2]; [4]
  IC50: 1800 nM

## CN1C(=O)[C@H](NC(=O)Nc2cccc(B(O)O)c2)N=C(c2ccccc2)c2ccccc21 [Example 15, N-{1,3-Dihydro-1-methyl-2-oxo-5-phenyl-1H-1,4-benzodiazepin-3-yl}-N'-{[3-phenylboronyl]urea}]
[1]; [3]
  IC50: 9.6 nM
[2]; [4]
  IC50: 420 nM

## CCCN1C(=O)[C@H](NC(=O)Nc2cccc(-c3nnn[nH]3)c2)N=C(c2ccccc2)c2ccccc21 [Example 18, N-{1,3-Dihydro-1-n-propyl-2-oxo-5-phenyl-1H-1,4-benzodiazepin-3-yl}-N'-{[3-(1H-tetrazol-5-yl)phenyl]urea}]
[1]; [3]
  IC50: 0.067 nM
[2]; [4]
  IC50: 1100 nM

## CN1C(=O)[C@H](NC(=O)Nc2cccc(C3=NOS(=O)N3)c2)N=C(c2ccccc2)c2ccccc21 (some centres unmarked) [Example 36, N-{1,3-Dihydro-1-methyl-2-oxo-5-phenyl-1H-1,4-benzodiazepin-3-yl}-N'-{[3-(1,2,4-oxadiathiazol-5-one)phenyl]urea}]
[1]; [3]
  IC50: 19.6 nM
[2]; [4]
  IC50: 1520 nM

## CN1C(=O)[C@H](NC(=O)Nc2cccc(S(=O)(=O)NC(=O)NC(C)(C)C)c2)N=C(c2ccccc2)c2ccccc21 [Example 30, N-{1,3-Dihydro-1-methyl-2-oxo-5-phenyl-1H-1,4-benzodiazepin-3-yl}-N'-{[3-(N-(t-butylaminocarbonyl)sulfonamido)phenyl]urea}]
[1]; [3]
  IC50: 14 nM
[2]; [4]
  IC50: > 3000 nM

## CN1C(=O)[C@H](NC(=O)Nc2cccc(C(=O)NS(C)(=O)=O)c2)N=C(c2ccccc2)c2ccccc21 [Example 23, N-{1,3-Dihydro-1-methyl-2-oxo-5-phenyl-1H-1,4-benzodiazepin-3-yl}-N'-{[3-(N-(methanesulfonyl)carboxamido)phenyl]urea}]
[1]; [3]
  IC50: 12 nM
[2]
  IC50: 1500 nM

## CN1C(=O)[C@H](NC(=O)Nc2ccc(Cl)nc2)N=C(c2ccccc2)c2ccccc21 [Example 5, N-{1,3-Dihydro-1-methyl-2-oxo-5-phenyl-1H-1,4-benzodiazepin-3-yl}-N'-{[5-(2-chloro)pyridyl]urea}]
[1]
  IC50: 46 nM
[2]; [4]
  IC50: > 3000 nM

## CN1C(=O)[C@H](NC(=O)Nc2ccc3[nH]nnc3c2)N=C(c2ccccc2)c2ccccc21 [Example 13]
[1]; [3]
  IC50: 19 nM
[2]
  IC50: 1500 nM

## CN1C(=O)[C@H](NC(=O)Nc2cccc(C#N)c2)N=C(c2ccccc2)c2ccccc21 [Example 7, N-{1,3-Dihydro-1-methyl-2-oxo-5-phenyl-1H-1,4-benzodiazepin-3-yl}-N'-{[3-(cyano)phenyl]urea}]
[1]; [3]
  IC50: 27 nM
[2]; [4]
  IC50: 3100 nM

## CN1C(=O)[C@H](NC(=O)Nc2cccc(S(=O)(=O)NC(=O)C(C)(C)C)c2)N=C(c2ccccc2)c2ccccc21 [Example 28, N-{1,3-Dihydro-1-methyl-2-oxo-5-phenyl-1H-1,4-benzodiazepin-3-yl}-N'-{[3-(N-(1,1-dimethylethylcarbonyl)sulfonamido)phenyl]urea}]
[1]; [3]
  IC50: 12 nM
[2]; [4]
  IC50: > 3000 nM

## COP(=O)(Nc1cccc(NC(=O)N[C@@H]2N=C(c3ccccc3)c3ccccc3N(C)C2=O)c1)OC [Example 11, N-{1,3-Dihydro-1-methyl-2-oxo-5-phenyl-1H-1,4-benzodiazepin-3-yl}-N'-{[3-(dimethylphosphoramido)phenyl]urea}]
[1]; [3]
  IC50: 100 nM
[2]; [4]
  IC50: 300 nM

## CN1C(=O)[C@H](NC(=O)Nc2cccc(-c3n[nH]c(=O)o3)c2)N=C(c2ccccc2)c2ccccc21 [Example 37]
[1]; [3]
  IC50: 3.62 nM
[2]; [4]
  IC50: 2460 nM
